Laboratory results reported in US20210332083A1, “Netrin-1 Compounds and Compositions Thereof for Treating Pulmonary Hypertension” (The Regents of the University of California, priority 2018, published 2021).
Positions of bridges follow the written chain, without caps; N, C: chain ends. Non-standard residues stand in square brackets, D forms with d. No end group written: not given here. mini‑PEG = diethylene glycol

Tested on: hypoxia induced pulmonary hypertensive mice
Experiment: Hemodynamic analysis (mPAP, RVSP by catheter) in hypoxia induced PH mice
Type: in vivo, C57BL/6 mice
Conditions: for mPAP (mmHg) / RVSP (mmHg): Mean ± SEM; for % Improvement (reduction in pressure/increase), RVSP / % Improvement (reduction in pressure/increase), mPAP: vs hypoxia w/o treatment; for % Reduction RVSP / % Reduction mPAP: Table 3, (negative control mmHg-netrin-1 compound)/(negative control mmHg); for mean pulmonary arterial pressure (mPAP) / right ventricular systolic pressure (RVSP): mice, 10% oxygen 21 days, 15 ng/day s.c. mini-osmotic pump, mean±SEM; for mean pulmonary arterial pressure (mPAP): hypoxia 40.54±4.473, normoxia 19.41±1.281; for right ventricular systolic pressure (RVSP): hypoxia 41.94±3.287, normoxia 32.20±1.884
Description: All animal experiments were approved by the Institutional Animal Care and Usage Committee at the University of California, Los Angeles (UCLA). […] groups of 9-12 weeks old male C57BL/6 mice (Charles River Laboratories, Wilmington, Mass.) were implanted using mini-osmotic pumps subcutaneously releasing the given netrin-1 compound (netrin-1, V1-9aa, V2-10aa, V3-11aa, V1P, V2P, V3P, V1S, V1T, V1D, V1C) at 15 ng/day, and the mice were housed under room air or 10% oxygen conditions in a normobaric chamber for 21 days. The hypoxic environment was maintained by continuous mixed gas flow (10% oxygen/90% nitrogen gas). The animals were fed and watered ad libitum, and cages were changed twice weekly. After the chamber was closed, the mixed gas was flushed to recover the hypoxic environment as quickly as possible. Animals were maintained at 20° C. with a 12:12-hour light-dark cycle. At the end of the treatment period, animals were anesthetized and hemodynamic analyses were performed by introducing 1.4 F catheter (Millar instruments, Houston, Tex.) into right ventricle and pulmonary artery. The right ventricular systolic blood pressure (RVSP) and the mean pulmonary arterial pressure (mPAP) were recorded using a Power Lab data acquisition system (ADInstruments Inc., CO).
All animal experiments were approved by the Institutional Animal Care and Usage Committee at the University of California, Los Angeles (UCLA). Eleven groups of 9-12 weeks old male C57BL/6 mice (Charles River Laboratories, Wilmington, Mass.) were implanted using mini-osmotic pumps subcutaneously releasing Netrin-1 derived peptides and modified peptides at 15 ng/day (Netrin-1, V1, V2, V3, V1P, V2P, V3P, V1S, V1T, V1D and V1C), and the mice were housed under room air or 10% oxygen conditions in a normobaric chamber for 21 days. The hypoxic environment was maintained by continuous mixed gas flow (10% oxygen/5% CO2 balanced with nitrogen gas). The animals were fed and watered ad libitum, and cages were changed twice weekly. After the chamber was closed, the mixed gas was flushed to recover the hypoxic environment as quickly as possible. Animals were maintained at 20° C. with a 12:12-hour light-dark cycle.
At the end of the treatment period, animals were anesthetized and hemodynamic analysis were performed by introducing 1.4 F catheter (Mikro-Tip® catheter-transducer; Model SPR-671, Millar instruments, Houston, Tex.) into both right and left ventricle and pulmonary artery. The right ventricular systolic blood pressure (RVSP), pulmonary arterial pressure (PAP), left ventricular systolic pressure (LVSP) and aortic pressure were recorded using a Power Lab data acquisition system (ADInstruments Inc., CO).

[1] = Table 2, n = 4-6, hypoxia w/o treatment 40.54 ± 4.473, normal control 19.41 ± 1.281
[2] = Table 2, n = 4-6, hypoxia w/o treatment 41.94 ± 3.281, normal control 32.20 ± 1.884
[3] = Table 2, printed over hypoxia-induced increase 9.74
[4] = Table 2, printed over hypoxia-induced increase 21.13
[5] = Table 1, n = 4-5, hypoxia w/o treatment 38.98 ± 1.747, normal control 32.20 ± 1.884
[6] = Table 1, n = 4-5, hypoxia w/o treatment 39.54 ± 5.341, normal control 19.41 ± 1.281
[7] = Table 1, hypoxia-induced increase 6.78
[8] = Table 1, hypoxia-induced increase 19.39

Row | Substance | mPAP (mmHg) [1] [mmHg] | RVSP (mmHg) [2] [mmHg] | reduction in pressure (of reduction in pressure/increase), RVSP [3] | reduction in pressure (of reduction in pressure/increase), mPAP [4] | % Improvement (reduction in pressure/increase), RVSP (Table 2) [%] | % Improvement (reduction in pressure/increase), mPAP (Table 2) [%] | % Reduction RVSP [%] | % Reduction mPAP [%] | mean pulmonary arterial pressure (mPAP) [mmHg] | right ventricular systolic pressure (RVSP) [mmHg] | RVSP (mmHg) [5] [mmHg] | mPAP (mmHg) [6] [mmHg] | reduction in pressure (of reduction in pressure/increase), RVSP [7] | reduction in pressure (of reduction in pressure/increase), mPAP [8] | % Improvement (reduction in pressure/increase), RVSP (Table 1) [%] | % Improvement (reduction in pressure/increase), mPAP (Table 1) [%] | attenuation (inhibition) of RVSP increase (hypoxia-induced RVSP increase) [%]
1 | (mini-PEG)-CDCRHNTAG ({mini‑PEG}-CDCRHNTAG; not fully specified (bridges); printed as (mini-PEG)-CDCRHNTAG; cysteine pairing not given here) [V1P] | 21.88 ± 3.020 | 30.95 ± 3.867 | > 9.74 | (18.66/21.13) | 100 | 88 | 26 | 46 | 21.88±3.020 | 30.95±3.876 |  |  |  |  |  |  | 
2 | (mini-PEG)-CLNCRHNTAG ({mini‑PEG}-CLNCRHNTAG; cysteine pairing not given here) [V2P] | 27.39 ± 2.973 | 29.95 ± 1.661 | > 9.74 | (13.15/21.13) | 100 | 62 | 29 | 32 | 27.39±2.973 | 29.95±1.661 |  |  |  |  |  |  | 
3 | (mini-PEG)-CPCKDGVTIGIT ({mini‑PEG}-CPCKDGVTIGIT; cysteine pairing not given here) [V3P] | 20.22 ± 1.304 | 29.27 ± 1.986 | > 9.74 | (20.32/21.13) | 100 | 96 | 30 | 50 | 20.22±1.304 | 29.27±1.986 |  |  |  |  |  |  | 
4 | CDCRHNTAG [V1-9aa] (Peptide based on human Netrin-1 sequence) [304-312 aa of human netrin-1] |  |  |  |  |  |  | 19 | 40 | 23.83±5.149 | 31.50±3.321 | 31.50 ± 3.321 | 23.83 ± 5.149 | (>6.78/6.78) | (15.97/19.39) | 100 | 81 | 
5 | CDCRHNTAG [V1C] (disulfide 1-3) | 17.76 ± 1.403 | 26.80 ± 3.051 | > 9.74 | (>21.32/21.13) | 100 | 100 | 36 | 56 | 17.76±1.403 | 26.80±3.051 |  |  |  |  |  |  | 
6 | CLNCRHNTAG (Peptide based on human Netrin-1 sequence) [V2-10aa, 368-377 aa] |  |  |  |  |  |  | 15 | 35 | 25.74±3.788 | 33.10±1.044 | 33.10 ± 1.044 | 25.74 ± 3.788 | (5.88/6.78) | (13.8/19.39) | 87 | 71 | 91
7 | CPCKDGVTGIT (Peptide based on human Netrin-1 sequence) [V3-11aa, 423-433 aa] |  |  |  |  |  |  | 20 | 26 | 29.35±3.635 | 31.23±1.773 | 31.23 ± 1.773 | 29.35 ± 3.635 | (>6.78/6.78) | (10.19/19.39) | 100 | 53 | 
8 | SDCRHNTAG (Peptide based on human Netrin-1 sequence) [V1S] | 16.58 ± 1.608 | 23.62 ± 0.518 | > 9.74 | (>21.32/21.13) | 100 | 100 | 44 | 59 | 16.58±1.608 | 23.62±0.518 |  |  |  |  |  |  | 
9 | TDCRHNTAG (Peptide based on human Netrin-1 sequence) [V1T] | 24.52 ± 2.686 | 29.03 ± 2.960 | > 9.74 | (16.02/21.13) | 100 | 76 | 31 | 40 | 24.52±2.686 | 29.03±2.960 |  |  |  |  |  |  | 
10 | dCDCRHNTAdG ([dC]DCRHNTAG; cysteine pairing not given here) [V1D] | 22.89 ± 3.237 | 29.41 ± 3.876 | > 9.74 | (17.65/21.13) | 100 | 84 | 30 | 44 | 22.89±3.237 | 29.41±3.876 |  |  |  |  |  |  | 
